From article PMC10099595, “Multimodal 4-arylchromene derivatives with microtubule-destabilizing, anti-angiogenic, and MYB-inhibitory activities” (Cancer Drug Resistance, 2023)
Where two headings read alike, the source gives them in different places.

Legend:
[1] = system: SW620/Ad300 colorectal cancer cells; design: method as in PMID 9187269, PMID 34977876; details: MDR SW620/Ad300 cells; cited from earlier work
518A2 melanoma cells [2] = assay: Cell-cycle analysis (FACS, propidium iodide); assay type: cell-based, human; details: 518A2 cells, 25 nM, 24 h
Method: 518A2 melanoma cells (10 × 10^4 cells/mL, 3 mL/well) were cultivated in six-well plates for 24 h. After the treatment with test compounds (10 and 25 nm), C-A4 (10 and 25 nm), or DMSO (vehicle) for an additional 24 h, the cells were trypsinized, centrifuged (300 × g, 5 min, 4 °C), and fixed in 70% EtOH for min. 24 h. For FACS measurement, cells were washed in PBS and stained with propidium iodide solution (50 µg/mL PI, 50 µg/mL RNase A in 0.1% sodium citrate) for 30 min at 37 °C. The DNA content of at least 10000 single cells was determined using a Beckmann Coulter Cytomics FC500 flow cytometer (λex = 488 nm, λem = 570 nm). CXP software (Beckman Coulter) was used to analyze the cells in the cell cycle phases (sub-G1, G1, S, G2/M).

[3] = system: microtubule cytoskeleton of 518A2 melanoma cells; assay: Microtubule immunofluorescence staining; assay type: cell-based, human; details: 518A2 cells, 100 nM
Method: The cells were treated with test compounds and controls (25 and 100 nm) for 0.5, 1, 3, and 6 h and washed with cytoskeletal buffer (100 nm PIPES, 3 nm MgCl2, 138 nm KCl, 2 nm EGTA, 300 nm sucrose, pH 6.8). Fixation and permeabilization were performed for 5 min with 3.7% formaldehyde and 0.2% Triton X-100 in a cytoskeletal buffer. The cells were fixed with cold EtOH for 10 s, rehydrated in PBS, and blocked with 1% bovine serum albumin in PBS for 30 min. The microtubules were stained for 1 h with primary (anti-α-tubulin, mouse monoclonal antibody) and secondary antibodies (goat anti-mouse IgG-AF-546, Invitrogen) and washed with PBS between each treatment. Nuclei were stained using DAPI (1 µg/mL in PBS) for 30 min. The coverslips were placed in Roti®-Mount FluorCare. Microtubules (λex = 488 nm, λem = 507 nm) and nuclei (λex = 358 nm, λem = 461 nm) were documented by confocal microscopy (Leica TCS SP5 confocal microscope, 630 × magnification) and edited with ImageJ.

MYB = target: T1, MYB (Homo sapiens, UniProt P10242, K503R/K527R); assay: Luciferase-dependent MYB activity assay (HEK-MYB-Luc reporter cells); assay type: cell-based; details: HEK-293 reporter cells, 16 h; read-out: IC50 inhibition of MYB activity
T1 construct: expressed in transfected cells; host or cells: HEK-293 (HEK-MYB-Luc reporter cell line)
Method: Compounds were tested using the HEK-MYB-Luc reporter cell line, which allows a doxycycline-dependent induction of MYB expression and harbors an MYB-dependent luciferase reporter plasmid, as previously described. After 16 h of substance treatment (0.0001-3 µM), luciferase activities were analyzed as described.

[4] = system: EA.hy926 endothelial hybrid cells; details: positive control; ref Köhler et al.[20]; cited from earlier work
518A2 melanoma cells [5] = details: positive control; ref Köhler et al.[20]; cited from earlier work
[6] = system: HCT-116 colon carcinoma cells; details: positive control; ref Köhler et al.[20]; cited from earlier work
[7] = system: HCT-116 p53-/- colon carcinoma cells; details: positive control; ref Köhler et al.[20]; cited from earlier work
U-87 glioblastoma cells [8] = details: positive control; ref Köhler et al.[20]; read-out: IC50 U87; cited from earlier work
[9] = system: HT-29 colon carcinoma cells; details: positive control; ref Köhler et al.[20]; cited from earlier work
[10] = system: KB-V1^Vbl cervix carcinoma cells; details: without verapamil; ref Köhler et al.[20]; cited from earlier work
[11] = system: HeLa cervix carcinoma cells; design: method as in Köhler et al.[20]; details: positive control; ref Köhler et al.[20]; cited from earlier work
[12] = system: MCF-7 breast carcinoma cells; details: positive control; ref Köhler et al.[20]; cited from earlier work
[13] = system: tested cancer and hybrid cell lines; assay: MTT assay, average over all tested cancer and hybrid cell lines; details: for IC50: Homo sapiens
[14] = system: EA.hy926 endothelial hybrid cells; assay: MTT antiproliferative assay, EA.hy926; assay type: cell-based; details: Homo sapiens, EA.hy 926, 72 h
Source text: (§1) The following cell lines were used: 518A2 melanoma (Department of Radiotherapy, Medical University of Vienna, Austria)[15], HeLa cervix carcinoma, KBV1^Vbl (ACC-149 cervix carcinoma, MCF7 [ACC-115]) breast carcinoma, U-87 glioblastoma, HT-29 (ACC-299), HCT-116 (ACC-581) and HCT-116p53-/- colon carcinoma, EA.hy926 (ATCC® CRL-2922^TM) endothelial hybrid cells, and HDFa (ATCC® PCS-201-012^TM) adult human dermal fibroblasts. […] Only mycoplasma-free cultures were used.

518A2 melanoma cells [15] = assay: MTT antiproliferative assay, 518A2; assay type: cell-based; details: Homo sapiens, 72 h
Source text: as §1

[16] = system: HCT-116 colon carcinoma cells; assay: MTT antiproliferative assay, HCT-116; assay type: cell-based; details: Homo sapiens, 72 h
Source text: as §1

[17] = system: HCT-116 p53-/- colon carcinoma cells; assay: MTT antiproliferative assay, HCT-116 p53-/-; assay type: cell-based; details: Homo sapiens, 72 h
Source text: as §1

U-87 glioblastoma cells [18] = assay: MTT antiproliferative assay, U87; assay type: cell-based; details: Homo sapiens, 72 h
Source text: as §1

[19] = system: HT-29 colon carcinoma cells; assay: MTT antiproliferative assay, HT-29; assay type: cell-based; details: Homo sapiens, 72 h
Source text: as §1

[20] = system: KB-V1^Vbl cervix carcinoma cells; assay: MTT antiproliferative assay, KB-V1Vbl (with or without verapamil); assay type: cell-based, human; details: Homo sapiens, KB-V1/Vbl; MTT, 72 h, without verapamil; read-out: IC50 KB-V1^Vbl
Source text: as §1

[21] = system: HeLa cervix carcinoma cells; assay: MTT antiproliferative assay, HeLa; assay type: cell-based; details: Homo sapiens, 72 h
Source text: as §1

[22] = system: MCF-7 breast carcinoma cells; assay: MTT antiproliferative assay, MCF-7; assay type: cell-based; details: Homo sapiens, MCF7, 72 h
Source text: as §1

[23] = system: HDFa adult human dermal fibroblasts; assay: MTT cytotoxicity assay, non-malignant HDFa; assay type: cell-based; details: 72 h, non-malignant cells
Source text: as §1

zebrafish larvae = assay: Zebrafish angiogenesis assay (SIV area); assay type: in vivo; details: zebrafish larvae 24 hpf, 48 h treatment, 50-1000 nM
Method: Transgenic zebrafish (Tg(fli1:EGFP, casper mutant) were bred at 28 °C.[16] After fertilization, the eggs were transferred to E3-medium (5 mm NaCl, 0.17 mm KCl, 0.33 mm CaCl, 0.33 mm MgSO4, 0.01% methylene blue, pH 7.2), followed by incubation for 24 h. The chorion was manually removed, and the larvae were treated with test compounds or solvent in six-well plates (30 fish per concentration, 5 mL/well) for 48 h. The fluorescent vasculature was documented with a Leica MZ10F and Zeiss AxioCam MRrc. To quantify the angiogenesis, the sub-intestinal vein (SIV) area was measured using ImageJ and expressed as means ± SD with the control set to 100%. The significance of SIV reduction through substance treatment was assessed using one-way analysis of variance (ANOVA), *P < 0.05; **P < 0.01; ***P < 0.001; ****P < 0.0001, with Dunnett´s multiple comparison test (GraphPad Prism 9).

[24] = read-out: Average IC50 value of the tested cancer and hybrid cell lines (Ø IC50), average of all cell lines of Table 2

T1 sequence (P10242 whole entry K503R/K527R): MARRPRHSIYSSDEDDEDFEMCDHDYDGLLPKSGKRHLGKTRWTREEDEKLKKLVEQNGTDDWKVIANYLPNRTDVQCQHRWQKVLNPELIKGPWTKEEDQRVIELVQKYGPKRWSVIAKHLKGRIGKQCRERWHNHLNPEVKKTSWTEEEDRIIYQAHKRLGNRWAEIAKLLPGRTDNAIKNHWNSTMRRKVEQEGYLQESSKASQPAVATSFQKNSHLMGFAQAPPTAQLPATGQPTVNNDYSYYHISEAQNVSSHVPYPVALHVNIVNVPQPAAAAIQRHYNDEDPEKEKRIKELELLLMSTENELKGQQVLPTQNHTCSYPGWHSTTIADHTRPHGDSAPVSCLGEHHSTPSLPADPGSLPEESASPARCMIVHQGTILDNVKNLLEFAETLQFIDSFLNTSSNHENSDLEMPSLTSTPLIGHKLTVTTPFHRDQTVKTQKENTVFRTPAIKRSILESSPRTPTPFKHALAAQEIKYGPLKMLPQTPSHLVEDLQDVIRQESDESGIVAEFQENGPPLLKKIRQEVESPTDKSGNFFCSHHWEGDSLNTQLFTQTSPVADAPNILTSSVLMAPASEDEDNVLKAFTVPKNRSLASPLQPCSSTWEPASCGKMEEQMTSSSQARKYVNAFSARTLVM

| Compound | IC50 (MYB) | IC50 [14] | IC50 (518A2 melanoma cells [15]) | IC50 [16] | IC50 [17] | IC50 (U-87 glioblastoma cells [18]) | IC50 [19] | IC50 [20] | IC50 [21] | IC50 [22] | melting point | IC50 [13, 24] | other results |
| --- | --- | --- | --- | --- | --- | --- | --- | --- | --- | --- | --- | --- | --- |
| CC[C@]1(O)C[C@@H]2CN(CCc3c([nH]c4ccccc34)[C@@](C(=O)OC)(c3cc4c(cc3OC)N(C)[C@H]3[C@@](O)(C(=O)OC)[C@H](OC(C)=O)[C@]5(CC)C=CCN6CC[C@]43[C@@H]65)C2)C1 [vinblastine] | – | – | – | – | – | – | – | – | – | – | – | – | reduction of effective concentration by treatment with P-gp modulators [1]: 351 fold |
| COc1ccc(/C=C\c2cc(OC)c(OC)c(OC)c2)cc1O [C-A4, combretastatin A4, reference compound] | – | – | – | – | – | – | – | – | – | – | – | – | G2/M cell-cycle arrest (in words) (518A2 melanoma cells [2]): significant G2/M cell-cycle arrest; time to change of the microtubule structure [3]: 30 min |
| COc1cc(C2C(C#N)=C(N)Oc3c2ccc2ccccc32)cc(OC)c1OC (stereo not shown) [1B] | 9.07 nM | – | – | – | – | – | – | – | – | – | – | – | IC50 [4]: 20 ± 1 nM; IC50 (518A2 melanoma cells [5]): 30 ± 0.1 nM; IC50 [6]: 20 ± 1.9 nM; IC50 [7]: 30 ± 2 nM; IC50 (U-87 glioblastoma cells [8]): 5 ± 0.2 nM; IC50 [9]: 300 ± 40 nM; IC50 [10]: 30 ± 1 nM; IC50 [11]: 10 ± 1 nM; IC50 [12]: 34 ± 2.5 nM; IC50 ([13]; read-out: Average IC50 value of the tested cancer and hybrid cell lines (Ø IC50)): 53 nM |
| COc1ccc2c(c1)OC(N)=C(C#N)C2c1ccccc1Cl (stereo not shown) [2H, 2-Amino-3-cyano-4-(2’-chlorophenyl)-7-methoxy-4H-chromene] | – | 3700 ± 300 nM | 2000 ± 100 nM | 3700 ± 400 nM | 2800 ± 300 nM | 7400 ± 200 nM | 5300 ± 970 nM | 1900 ± 200 nM | 1400 ± 100 nM | 5100 ± 370 nM | 184 °C | > 500 nM | – |
| COc1ccc2c(c1)OC(N)=C(C#N)C2c1cc(Cl)c(OC)c(OC)c1 (stereo not shown) [2A, 2-Amino-3-cyano-4-(3’-chloro-4’, 5’-dimethoxyphenyl)-7-methoxy-4H-chromene] | 2.81 ± 0.3 nM | 0.4 ± 0.06 nM | 4 ± 0.3 nM | 70 ± 5 nM | 70 ± 5 nM | 20 ± 3 nM | 300 ± 20 nM | 6 ± 0.5 nM | 10 ± 0.4 nM | 40 ± 7 nM | 224 to 225 °C | 53 nM | IC50 [23]: 11500 nM; effect on SIV growth (angiogenesis) (zebrafish larvae): inhibited angiogenesis to an extent comparable to the known inhibitor axitinib; SI (IC50 HDFa cells/IC50 tumor cell average) ([13]; selectivity index, HDFa vs tumor cell average): 219 |
